Experimental data: PMC7824897, “Selection of the First ^99mTc-Labelled Somatostatin Receptor Subtype 2 Antagonist for Clinical Translation—Preclinical Assessment of Two Optimized Candidates” (Pharmaceuticals, 2020)

What was measured:
[1] = biological target: T1, HEK-SST2 cells (human SST2 receptor) (Homo sapiens, UniProt P30874); experiment: Internalization and cell-surface binding in HEK-SST2 cells; format: cell-based; conditions: 37 °C
T1 construct: expressed in transfected cells; host or cells: HEK293 (HEK-SST2), provided by Prof; Stefan Schulz, Jena University Hospital

[2] = biological target: T1, HEK-SST2 cells (human SST2 receptor); experiment: Dissociation of cell-surface bound radiotracer with or without competitor; format: cell-based
[3] = design: species or system human
Source text: To account for various possible locations of the tumour, we used two S-values. One was the value for the liver and is representative for the liver lesions. Other was the “average abdominal S-value”, which was the average S-value for the following organs: stomach, liver, gallbladder, spleen, pancreas, small intestine, kidneys, large intestine, and adrenal glands. Estimated dose to various organs, average total body dose and effective dose are summarized in Table 3 for both radiotracers and two typical tumour locations.
Dosimetric calculations were based on the biodistribution of [^99mTc]Tc-TECANT-1 and [^99mTc]Tc-TECANT-2 (Table 3). […] Percent of injected activity per organ in a human model was evaluated according to the animal data extrapolation model:(2) (%IA/organ)human=[(%IA/g)mouse×Mmouse(g)]×(m(g)/M(kg))human
Here m is the organ mass and M is the total body weight of mouse or human. Average total weight of the mouse was measured, while human phantom has the total weight of 73 kg. The %IA/g and %IA/organ is the percentage of the injected activity concentration (i.e., per gram of tissue) and per organ, respectively. For the tumour, we assumed that the percent of injected activity uptake into the tumour is the same for mouse and human.
Subsequently, percentage of the injected activity per organ was folded with the decay curve of ^99mTc and interpolated with the exponential function. The interpolation function was used to estimate initial %ID/organ and the time-integrated activity concentration (TIAC). Absorbed dose per injected activity for various organs was calculated with the TIAC factors and S-values for a standard person from the OpenDose project. Effective dose was evaluated according to the ICRP 103 recommendations.
We also assumed that the remaining activity from the organs and tumour ends up in the bladder.

in vivo = conditions: female, mouse, 20 pmol, total radioactivity
[4] = format: physicochemical; conditions: pH 7.4
Description: Determination of the distribution coefficient (log D) was performed by the shake-flask method in 1:1 mixture of octanol/Phosphate buffered saline (PBS). Then, 50 µL of [^99mTc]Tc-TECANT-1 or [^99mTc]Tc-TECANT-2 solution was diluted up to 500 µL with PBS (pH 7.4; 8 mM phosphate). Next, 20 µL of this solution was added to six eppendorf tubes, each containing 500 µL octanol and 480 µL PBS. The samples were vortexed for 15 min at 1400 rpm followed by centrifugation for 2 min at 4500 rpm. Aliquots of 100 µL from each phase were taken and measured in a γ-counter. The log D was calculated as the average of the logarithmic values (n = 3, six technical replicates) of the ratio between the radioactivity in the octanol and the PBS phase.

[5] = athymic nude-Foxn1^nu/Foxn1^+, Biodistribution Heart
[6] = athymic nude-Foxn1^nu/Foxn1^+, Biodistribution Liver
[7] = athymic nude-Foxn1^nu/Foxn1^+, Biodistribution Lung
[8] = athymic nude-Foxn1^nu/Foxn1^+, Biodistribution Pancreas
[9] = athymic nude-Foxn1^nu/Foxn1^+, Biodistribution Spleen
[10] = athymic nude-Foxn1nu/Foxn1+, Biodistribution Adrenals
[11] = athymic nude-Foxn1nu/Foxn1+, Biodistribution Blood
[12] = athymic nude-Foxn1nu/Foxn1+, Biodistribution Bone
[13] = athymic nude-Foxn1nu/Foxn1+, Biodistribution HEK-SST2 (+) tumour uptake
[14] = athymic nude-Foxn1nu/Foxn1+, Biodistribution Intestine
[15] = athymic nude-Foxn1nu/Foxn1+, Biodistribution Kidneys
[16] = athymic nude-Foxn1nu/Foxn1+, Biodistribution Muscle
[17] = athymic nude-Foxn1nu/Foxn1+, Biodistribution Pituitary
[18] = athymic nude-Foxn1nu/Foxn1+, Biodistribution Stomach

T1 sequence (P30874 whole entry): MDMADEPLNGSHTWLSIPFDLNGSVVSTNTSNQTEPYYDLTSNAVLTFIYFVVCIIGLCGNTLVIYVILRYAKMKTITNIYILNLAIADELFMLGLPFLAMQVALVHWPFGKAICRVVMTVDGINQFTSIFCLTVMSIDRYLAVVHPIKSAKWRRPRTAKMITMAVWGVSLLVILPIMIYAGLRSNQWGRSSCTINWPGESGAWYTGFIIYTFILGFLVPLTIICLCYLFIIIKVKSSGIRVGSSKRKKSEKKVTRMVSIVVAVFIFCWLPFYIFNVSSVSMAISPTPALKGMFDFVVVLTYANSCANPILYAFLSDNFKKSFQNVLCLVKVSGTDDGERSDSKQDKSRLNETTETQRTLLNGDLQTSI

C[C@@H](O)[C@@H]1NC(=O)[C@H](CCCCN)NC(=O)[C@@H](Cc2c[nH]c3ccccc23)NC(=O)[C@H](Cc2ccc(O)cc2)NC(=O)[C@H](NC(=O)[C@H](Cc2ccc(Cl)cc2)NC(=O)C(CNCCN)CNCCN)CSSC[C@@H](C(=O)N[C@H](Cc2ccc(O)cc2)C(N)=O)NC1=O [[^99mTc]Tc-TECANT-2, metal not drawn]
internalization (internalized fraction) ([1]; 30 min): 4.4 ± 0.5%
internalization (internalized fraction) ([1]; 4 h): 11.7 ± 1.4%
cell surface binding ([1]; 4 h, % of total radioactivity added): 36.9 ± 8.5%
estimated dissociation half-life ([2]; absence of competitor): 40.3 min
total binding remaining (dissociation assay) ([2]; after 4 h, 37 °C, absence of competitor): 27.2 ± 6.3%
estimated dissociation half-life ([2]; presence of competitor): 7.5 min
bound fraction still remaining in the cells ([2]; presence of excess of the competitor, 37 °C): 1.1 ± 0.1%
Average total body dose [3]: 3.3 μGy/MBq
Dose Bone [3]: 4.0 μGy/MBq
Dose Muscle [3]: 2.6 μGy/MBq
Dose Red marrow [3]: 3.4 μGy/MBq
Dose Small intestine wall [3]: 1.9 μGy/MBq
biological half-life of clearance of remaining activity (rest of the body) to the bladder [3]: 13.3 h
effective dose [3]: 4.3 mSv
tissue uptake at 1 h (in vivo; [5]): 1.64 ± 0.6 %ID/g
tissue uptake at 4 h (in vivo; [5]): 0.26 ± 0.05 %ID/g
tissue uptake at 24 h (in vivo; [5]): 0.05 ± 0.01 %ID/g
tissue uptake at 1 h (in vivo; [6]): 5.38 ± 1.36 %ID/g
tissue uptake at 4 h (in vivo; [6]): 3.72 ± 0.92 %ID/g
tissue uptake at 24 h (in vivo; [6]): 1.07 ± 0.24 %ID/g
tissue uptake at 1 h (in vivo; [7]): 17 ± 5.75 %ID/g
tissue uptake at 4 h (in vivo; [7]): 2.52 ± 0.53 %ID/g
tissue uptake at 24 h (in vivo; [7]): 0.3 ± 0.05 %ID/g
tissue uptake at 1 h (in vivo; [8]): 16.4 ± 4.53 %ID/g
tissue uptake at 4 h (in vivo; [8]): 1.96 ± 0.58 %ID/g
tissue uptake at 24 h (in vivo; [8]): 0.12 ± 0.05 %ID/g
tissue uptake at 1 h (in vivo; [9]): 1.61 ± 0.46 %ID/g
tissue uptake at 4 h (in vivo; [9]): 0.55 ± 0.15 %ID/g
tissue uptake at 24 h (in vivo; [9]): 0.24 ± 0.06 %ID/g
tissue uptake at 1 h (in vivo; [10]): 5.14 ± 1.79 %ID/g
tissue uptake at 4 h (in vivo; [10]): 1.25 ± 0.33 %ID/g
tissue uptake at 24 h (in vivo; [10]): 0.73 ± 0.2 %ID/g
tissue uptake at 1 h (in vivo; [11]): 1.8 ± 0.44 %ID/g
tissue uptake at 4 h (in vivo; [11]): 0.23 ± 0.05 %ID/g
tissue uptake at 24 h (in vivo; [11]): 0.03 ± 0.01 %ID/g
tissue uptake at 1 h (in vivo; [12]): 1.67 ± 0.94 %ID/g
tissue uptake at 4 h (in vivo; [12]): 0.41 ± 0.14 %ID/g
tissue uptake at 24 h (in vivo; [12]): 0.2 ± 0.19 %ID/g
tissue uptake at 1 h (in vivo; [13]): 19.1 ± 4.47 %ID/g
tissue uptake at 4 h (in vivo; [13]): 28.4 ± 4.84 %ID/g
tissue uptake at 24 h (in vivo; [13]): 11 ± 4.69 %ID/g
tissue uptake at 4 h (in vivo; athymic nude-Foxn1nu/Foxn1+, Biodistribution HEK-SST2 (−) tumour uptake): 0.38 ± 0.13 %ID/g
tissue uptake at 1 h (in vivo; [14]): 4.05 ± 1.12 %ID/g
tissue uptake at 4 h (in vivo; [14]): 0.86 ± 0.4 %ID/g
tissue uptake at 24 h (in vivo; [14]): 0.31 ± 0.17 %ID/g
tissue uptake at 1 h (in vivo; [15]): 43.6 ± 11.4 %ID/g
tissue uptake at 4 h (in vivo; [15]): 25.9 ± 5.23 %ID/g
tissue uptake at 24 h (in vivo; [15]): 3.42 ± 1.44 %ID/g
tissue uptake at 1 h (in vivo; [16]): 0.69 ± 0.22 %ID/g
tissue uptake at 4 h (in vivo; [16]): 0.15 ± 0.04 %ID/g
tissue uptake at 24 h (in vivo; [16]): 0.06 ± 0.03 %ID/g
tissue uptake at 1 h (in vivo; [17]): 4.74 ± 1.5 %ID/g
tissue uptake at 4 h (in vivo; [17]): 1.21 ± 0.86 %ID/g
tissue uptake at 24 h (in vivo; [17]): 2.12 ± 1.36 %ID/g
tissue uptake at 1 h (in vivo; [18]): 14.6 ± 4.89 %ID/g
tissue uptake at 4 h (in vivo; [18]): 2.17 ± 0.39 %ID/g
tissue uptake at 24 h (in vivo; [18]): 0.45 ± 0.08 %ID/g
logD [4]: -1.63 ± 0.16
